The values below come from US20030036531A1, “Use of lysophospholipids to inhibit mammalian phospholipase D” (Wisconsin Alumni Research Foundation, priority 2001, published 2003).

For test [1], the target named is T1, partially purified PLD from rat brain membrane (Rattus norvegicus, UniProt P70496).
T1 construct: The activity of partially purified PLD from rat brain membrane was assayed; tissue Dr. Sue Goo Rhee (National Institutes of Health, Bethesda, Md.); host or cells: rat brain membranes
T1 sequence (P70496 1-1074): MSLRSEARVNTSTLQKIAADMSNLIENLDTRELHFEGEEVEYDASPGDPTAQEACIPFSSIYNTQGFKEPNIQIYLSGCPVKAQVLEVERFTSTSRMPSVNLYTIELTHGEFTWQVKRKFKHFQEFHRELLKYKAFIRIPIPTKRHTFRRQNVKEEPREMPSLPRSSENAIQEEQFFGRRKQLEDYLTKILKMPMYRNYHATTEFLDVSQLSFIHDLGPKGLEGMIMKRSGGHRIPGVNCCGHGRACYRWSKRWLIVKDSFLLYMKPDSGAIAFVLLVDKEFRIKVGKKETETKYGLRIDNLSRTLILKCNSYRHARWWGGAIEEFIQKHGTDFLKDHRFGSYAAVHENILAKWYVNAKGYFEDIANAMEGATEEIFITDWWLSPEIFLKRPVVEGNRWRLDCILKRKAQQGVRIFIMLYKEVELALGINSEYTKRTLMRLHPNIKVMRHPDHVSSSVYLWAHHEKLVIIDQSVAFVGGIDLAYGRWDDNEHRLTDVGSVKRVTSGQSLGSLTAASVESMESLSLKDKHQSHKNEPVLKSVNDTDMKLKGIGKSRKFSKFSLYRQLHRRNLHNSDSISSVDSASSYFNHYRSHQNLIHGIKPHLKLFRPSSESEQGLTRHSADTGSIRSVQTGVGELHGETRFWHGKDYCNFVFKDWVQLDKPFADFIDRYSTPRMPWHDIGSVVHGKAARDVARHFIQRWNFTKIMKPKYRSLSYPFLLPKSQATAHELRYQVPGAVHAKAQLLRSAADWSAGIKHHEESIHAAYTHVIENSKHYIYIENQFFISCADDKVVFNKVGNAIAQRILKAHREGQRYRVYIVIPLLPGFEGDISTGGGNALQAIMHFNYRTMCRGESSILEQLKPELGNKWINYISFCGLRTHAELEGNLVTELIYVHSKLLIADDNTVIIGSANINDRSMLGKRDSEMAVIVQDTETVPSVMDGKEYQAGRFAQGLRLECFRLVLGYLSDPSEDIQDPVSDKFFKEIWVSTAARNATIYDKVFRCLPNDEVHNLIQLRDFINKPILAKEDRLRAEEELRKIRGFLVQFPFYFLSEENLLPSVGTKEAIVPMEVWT
Nature of the test: Measurement of PLD activity (partially purified rat brain PLD, 14C-PC substrate, TLC). In kind it is biochemical. Particulars: for PLD activity, % of the control: 10 μM compound, standard mixture with 4.8 μM PIP2, 100 nM Arf, 5 μM GTPγS; for Km for PLD in the presence of inhibitor: Km without inhibitor 33.3 μM PC; for Vmax in the presence of inhibitor: Vmax without inhibitor 166.7 pmol/h, Lineweaver-Burk; for IC50: FIG. 2, read-out: Half-maximal inhibition of PLD activity.

In a further test the test system is PLD from plant tissues. Particulars: cited from earlier work.
For test [2], the system named is human prostate cancer cell line PC-3. Kind of test: PC-3 cell growth (cell viability after trypan blue staining). The format is cell-based. Here is the method:
The influence of lysophospholipids on the inhibition of cancer cell growth was investigated. For this purpose, human prostate cancer cell line PC-3 was used. PC-3 cells were cultured using standard RPMI 1640 medium supplemented with 5% fetal bovine serum (FBS). The composition of RPMI 1640 included inorganic salts, glucose, amino acids and vitamins (see Rajesh, D., et al., Molecular Pharmacology 56:515-525 (1999) for details). PC-3 cells were cultured in the presence of various presence of various phospholipids. At appropriate times after treatment the cells were treated by trypsin EDTA treatment, washed twice in an ice cold buffer and analyzed for cell viability after staining with trypan blue (Sawicki, W., et al., Stain Technology 42:143 (1967)).

In test [3] the test system is PLD activity in PC-3 cells. Particulars: cited from earlier work.
A further test concerns the target T2, rat brain PLD (Rattus norvegicus, UniProt P70496).
T2 construct: 200 ng of rat brain PLD; tissue Dr. Sue Goo Rhee (National Institutes of Health, Bethesda, Md.); host or cells: rat brain membranes
T2 sequence (P70496 1-1074): T1 sequence (P70496 1-1074)
Kind of test: Binding of lysophospholipids to PLD (vesicle precipitation assay followed by immunoblot). Particulars: 1 mM vesicles, 1,500 fold excess BSA. Here is the method:
The binding ability of lysophospholipids to PLD was estimated by precipitation assay followed by immunoblot. The final assay volume was 0.3 ml containing 50 mM Hepes (pH 7.5), 3 mM EGTA, 80 mM KCl, 2.5 MM MgCl2, 2 mM CaCl2, 1% ethanol, 5 μM GTPγS, 33 nM myristoylated Arf, 300 μg of BSA, 200 ng of rat brain PLD and 1 mM lysophospholipid or phospholipid vesicles. After incubation at 37° C. for 10 minutes, the mixture was cooled in ice-water for 30 minutes and centrifuged at 17,000×g for 30 minutes at 4° C. The precipitant of lysophospholipid vesicles containing bound PLD in the excess of BSA (1,500 fold than rat PLD) was resuspended in 20 μL PBS (pH 7.5). The bound PLD was separated by 8% SDS-PAGE without reducing agent (2-mercaptoethanol) in sample loading buffer and transferred onto immunoblot membrane. The membrane was blotted with rabbit-PLD antibodies that detect both PLD 1 and PLD 2 isozymes. The PLD-antibody complex was visualized by staining alkaline phosphatase conjugated to a second antibody (Bio-Rad, Hercules, Calif.).

Take eLPE [reference compound]: the “effect on rat brain PLD activity” value in test [1] (10 μM (FIG. 1)) is recorded as “not inhibited but rather slightly stimulated”.

Consider “lysophosphatidylcholine [LPC, reference compound]”, for which the “inhibition of activity of PLD from plant tissues” value (shortened to “inhibition of activity of PLD”) in the test with PLD from plant tissues was “not significantly inhibited”. Besides, the “retardation of PC-3 cell growth (FIG. 8)” value in test [2] is recorded as “able to retard the growth of PC-3 cells”. Moreover, the “PLD activity, % of the control” value in test [1] came out at 61.0%.

The inhibition is the drop in the measured response relative to a control, in per cent. Read a high inhibition as a response far below the control. On to `CCCCCCCC/C=C\CCCCCCCC(=O)O` [oleate, reference compound], for which at 20 µM the inhibition in test [1] (20 μM) was 10%. For the same compound, testing at 40 µM in test [1] (40 μM) gave an inhibition of 20%.

For the compound lysophosphatidylserine [LPS], the “inhibition of activity of PLD” value in the test with PLD from plant tissues was “not significantly inhibited”. For the same compound, in test [1] (4 μM inhibitor), the “Km for PLD in the presence of inhibitor” value was “did not change” and the “Vmax in the presence of inhibitor” value came out at 121.5 pmol/h. In test [1], the “PLD activity, % of the control” value is given as 30.3% and the IC50 amounted to 6 µM.

As for `N[C@@H](CO)C(=O)O` [serine, reference compound], the “inhibition of PLD activity by headgroups” value in test [1] (10 μM) is “None of the headgroups such as choline, glycerol, inositol, or serine significantly inhibited PLD activity”.

Regarding Triton X-100 [reference compound], the “stimulatory effect on PLD activity” value in test [1] (10 μM) is on record as 6-9%.

With lysophosphatidylglycerol [LPG], the “inhibition of activity of PLD” value with PLD from plant tissues was “not significantly inhibited”. In addition, in test [2], the “retardation of PC-3 cell growth (FIG. 8)” value is listed as “able to retard the growth of PC-3 cells”. Also, the “PLD activity, % of the control” value in test [1] amounted to 24.9%.

In the case of `C=C(C)[C@@H]1CC=C(CO)CC1` [perillyl alcohol, reference compound], the “inhibition of PC-3 cell growth compared to LPI (FIG. 10)” value in test [2] (1 mM) is reported as “not as strong inhibitor of PC-3 cell growth as compared to LPI”.

As to `O[C@H]1[C@H](O)[C@@H](O)[C@H](O)[C@@H](O)[C@H]1O` [inositol, reference compound], the “inhibition of PLD activity by headgroups” value in test [1] (10 μM) is on record as “None of the headgroups such as choline, glycerol, inositol, or serine significantly inhibited PLD activity”.

“lysophosphatidic acid [reference compound]”: the “effect on PLD activity in PC-3 cells” value in test [3] is recorded as “stimulate PLD activity”. Besides, the “stimulation of rat brain PLD” value in test [1] (10 and 20 μM, assay contains Arf and PIP2) was “not stimulated”.

Regarding lysophosphatidylinositol [LPI], the “co-precipitation of PLD proteins with lipid vesicles” value at rat brain PLD is on record as “co-precipitated”. Also, in test [2], the “inhibition of PC-3 cell growth, lyso form vs phospholipid and inositol (FIG. 7)” value is recorded as “able to inhibit the PC-3 cell growth”; the “retardation of PC-3 cell growth (FIG. 8)” value is recorded as “able to retard the growth of PC-3 cells”. For the same compound, the “inhibition of PC-3 cell growth, concentration dependence (FIG. 9)” value in test [2] (100 μM) is reported as “very inhibitory”. In addition, the “inhibition of PLD activity” value in test [1] (160 nM) is given as 19%. In addition, the “inhibition of PLD activity” value in test [1] (640 nM) was determined as 27%. The “PLD activity, % of the control, in the absence of Arf” value in test [1] (4 μM inhibitor, no Arf (no Arf alone: 72%)) is recorded as 33%. Moreover, in test [1] (4 μM inhibitor), the “Km for PLD in the presence of inhibitor” value is given as “did not change” and the “Vmax in the presence of inhibitor” value is 76.9 pmol/h. Also, in test [1], the “PLD activity, % of the control” value is 23.3% and the IC50 came to 3 µM. The “change of PLD activity by addition of myristoylated Arf in presence of inhibitor” value in test [1] (15 μM inhibitor) was “not significantly changed”. Moreover, the “PLD inhibition when PIP2 concentration tripled” value in test [1] (LPI 4 μM, LPS 12 μM, PIP2 4.8 vs 14.4 μM) is “not significantly changed”.
